The test system of one data set is C. jejuni. Nature of the data set: Spot Test, antagonistic activity of isolated signal peptides. In kind it is cell-based, Campylobacter jejuni. The settings on record: isolated signal peptide. The method, then:
(§1) The antagonistic activity of the bacteriocins produced when using the signal peptide and an inducer strain of bacteria against C. jejuni and S. enteritidis was assessed using a Spot Test. The steps included taking various concentrations of pure preparation (μg/ml) of the bacteriocin in approximately 10 microliters of volume plated onto blood-supplemented Campylobacter agar or Nutrient agar (MPA or Meta Peptone Agar) previously seeded with cells of target bacteria. Plates containing cultures of C. jejuni were grown at about 42° C., under microaerobic conditions. Plates containing S. enteritidis were grown at about 37° C. under aerobic conditions. Activity of the bacteriocin was expressed in arbitrary units (AU) per one milliliter of the preparation at which a visible zone of inhibition of the growth of culture appears (Henderson et al., Archives of Biochemistry and Biophysics, Volume 295, 5-12, 1992; herein incorporated by reference). Specific activity can also expressed as arbitrary units per milligram of pure bacteriocin.
Its activity was about 200 AU/ml and its molecular weight was about 2.5 kDa, as determined by SDS-PAGE electrophoresis. The isoelectric point (pI) was about 7.9 (FIGS. 1A and 1B).
Its molecular weight was about 3.1 kDa as measured by SDS-PAGE and the isoelectric point (pI) was about 8.1 (FIGS. 2A and 2B).
Its molecular weight was about 2.1 kDa as determined by SDS-PAGE electrophoresis and its isoelectric point was about 8.9 (FIGS. 3A and 3B).

Data set [1] can be described thus: Isoelectric point by isoelectrofocusing. It counts as physicochemical. The source says:
FIGS. 1A and 1B are photographs showing the direct detection of signal peptide and bacteriocin OR-7 after SDS-PAGE (A) and isoelectrofocusing (B). […] In FIG. 1A Lane 1-Molecular Mass Markers LMW Range 2,100-12,500 (Amersham Pharmacia Biotech): 2,100; 5,780; 8,400; 12,500 Da. […] Lane 3 contained pI standards (Protein Test Mixture, I Marker Proteins, Serva): 10.0, 9.2, 8.1, 6.9, 5.5, 4.3.
FIGS. 2A and 2B are photographs showing direct detection of signal peptide and bacteriocin 50-52 after SDS-PAGE (A) and isoelectrofocusing (B). […] Lane 3 contained pI standards (Protein Test Mixture, I Marker Proteins, Serva): 10.0, 8.1, 7.9, 6.4, 5.5, 4.3, 4.1, and 3.8.
FIGS. 3A and 3B are photographs showing the direct detection of signal peptide and bacteriocin 760 after SDS-PAGE(A) and isoelectrofocusing (B). […] Lane 3 contained pI standards (Protein Test Mixture, I Marker Proteins, Serva): 10.0, 8.1, 7.9, 6.4, 5.5, 4.3, 4.1, and 3.8.
At the end of 14 hours the supernatant from the cultures was placed into 500 ml centrifuge flasks with about one milliliter of regenerated Sepharose SP Fast Flow (v/v 500: 1). This was incubated for approximately 1 hour at room temperature with stirring. The suspension was then washed with about 100 ml of a 0.2 M TRIS-HCl buffer pH approximately 6.4. The bacteriocins were eluted by centrifugation with about 100 ml of approximately 0.2 M K2HPO4, pH of about 5.8 at about 7,000×g for approximately 10 minutes. Antagonistic activity of the bacteriocin fractions against C. jejuni and S. enteritidis was assessed using a Spot Test as described above. The level of purity of the bacteriocin fractions was determined by SDS-PAGE. The isoelectric points of the fractions were determined by isoelectric focusing. Concentrations of protein for all bacteriocin fractions were determined at 215 nm using a spectrophotometer.

The test system of data set [2] is Enterococcus faecium LWP 50-52. Nature of the data set: Bacteriocin 50-52 production with signal peptide under scaled-up cultivation (bioreactor). In kind it is cell-based. Conditions: LWP 50-52 + LWP-320, 0.22 mg peptide added after 2 hours of cultivation, about 12 hours. How it is done: as §1
Isolation of bacteriocin 50-52 involved two steps: (1) the isolation of bacteriocin from the supernatant of the culture fluid and (2) the isolation of bacteriocin from the precipitate of cells of both the inducing and the producing strains. In step 1, the cultures were harvested and separated by centrifugation at about 10,000×g for about 15 minutes to precipitate the cells. The supernatant was applied to an Octyl Sepharose 4 Fast Flow column to recover the bacteriocin using an elution buffer of about 20 mM K2HPO4 buffer, pH approximately 7.0. The cell precipitate from step 2 was suspended in phosphate buffer with about 0.7% NaCl, pH approximately 5.6 (elution buffer) and the suspension was mixed and incubated for about 20 minutes. After incubation, the suspension was centrifuged at about 10,000×g for about 15 minutes. The bacteriocin was isolated from the supernatant using ion-exchange chromatography on Superose SP Fast Flow using an elution buffer containing about 10 mM Tris HCl and about 125 mM NaCl, pH approximately 7.5. Antagonistic activities of the bacteriocin fractions against C. jejuni and S. enteritidis were assessed in a spot-test. The level of purity of bacteriocins was determined by SDS-PAGE. The isoelectric points of the fractions were determined using isoelectricfocusing. Concentrations of protein for all bacteriocin fractions were determined at approximately 215 nm using a spectrophotometric method.
To evaluate influence of the signal peptide on bacteriocin production under scaled-up cultivation, producing and inducing strains were grown in a V-6 liter bioreactor containing about 6 liters of medium. The ratio of concentrations of cultures and the signal peptide was maintained as in Table 5 for the conditions of 10% Brucella Broth, LWP 50-52, LWP 320, 0.01 mg/ml of LWP 50-52 signal peptide added after about 2 hours of cultivation. Isolation of bacteriocin 50-52 was performed at about 8, 10, 12, and 14 hours of cultivation as described above. The control contained 10% Brucella Broth, LWP 50-52, LWP-320, at a pH of approximately 6.9, at about 37° C., and about 150 rpm. The bacteriocin 50-52 was isolated after about 12 hours of cultivation. For the second condition, the conditions were the same except that approximately 0.22 mg of LWP 50-52 signal peptide was added after 2 hours of cultivation. Each condition was repeated three times.

Data set [3] relates to Streptococcus cricetus LWP 760. Nature of the data set: Bacteriocin 760 production with signal peptide under scaled-up conditions (bioreactor). It counts as cell-based. The settings on record: V-61 reactor, 10% Brucella Broth, LWP 760, LWP 320, peptide 0.22 mg added after two hours, pH 6.9, 37° C., 12 hours.

Turning to “TNVTKSWWVLAGCNQVVASNCNCGNVKGLT (listed as Enterococcus faecium) [LWP 50-52 Signal Peptide, signal peptide isolated from Enterococcus faecium LWP 50-52, stimulates bacteriocin 50-52 production]”, the antagonistic activity result with C. jejuni is given as “did not possess antagonistic activity”. Moreover, in data set [1], the “isoelectric point (pI)” value is “about 8.1”. Moreover, in data set [2], the Activity is given as 6,553,600 AU/ml, the “Increase in the amount of protein vs. control” value was found to be 4, the “Protein Concentration” value is 2.4 mg/mL and the “Specific Activity” value is 2,730,665 AU/mg. Moreover, the “Amount of Protein/liter of medium” value in data set [2] (listed as LWP 50-52 signal Peptide) was determined as 360 mg. Further, the “Amount of Protein/liter of medium” value in data set [2] (listed as LWP 50-52 signal peptide) is recorded as “about 360 mg”.

In the case of “WNKYKTNWVLSVCNTGCACAAVKGLT (listed as Streptococcus cricetus) [LWP 760 Signal Peptide, signal peptide isolated from Streptococcus cricetus LWP 760, stimulates bacteriocin 760 production]”, in the data set with C. jejuni, the antagonistic activity entry is reported as “did not possess antagonistic activity”. Moreover, in data set [3], the Activity is listed as 13,107,200 AU/ml, the “Increase in the amount of protein produced vs. in control” value is 4.25, the “Protein Concentration” value is 3.4 mg/mL and the “Protein produced per one liter of medium” value was found to be 510 mg. For the same sequence, in data set [3], the “Specific Activity” value is given as 3,855,058 AU/mg. The “isoelectric point (pI)” value in data set [1] is “about 8.9”.

Source of the values: patent US7354904B2, “Bacteriocin inducer peptides” (priority 2005, dated 2008).
